Assay results reported in ChEMBL document CHEMBL1127612, “Maleimidoethyl 3-(tri-n-butylstannyl)hippurate: a useful radioiodination reagent for protein radiopharmaceuticals to enhance target selective radioactivity localization” (J Med Chem, 1994).

Columns and labels:
Conditions in all cases: in vivo
[1] = tested on: Mus musculus; assay: Tested for biodistribution of radioactivity after 24 hr of intravenous injection in mice intestine; assay type: ADME, organism-based
[2] = tested on: Mus musculus; assay: Tested for biodistribution of radioactivity after 72 hr of intravenous injection in mice spleen; assay type: ADME, organism-based
[3] = tested on: Mus musculus; assay: Tested for biodistribution of radioactivity after 72 hr of intravenous injection in mice lung; assay type: ADME, organism-based
[4] = tested on: Mus musculus; assay: Tested for biodistribution of radioactivity after 3h of intravenous injection in mice stomach; assay type: ADME, organism-based
[5] = tested on: Mus musculus; assay: Tested for biodistribution of radioactivity after 1 hr of intravenous injection in mice intestine; assay type: ADME, organism-based
[6] = tested on: Mus musculus; assay: Tested for biodistribution of radioactivity after 10 min of intravenous injection in mice stomach; assay type: ADME, organism-based
[7] = tested on: Mus musculus; assay: Tested for biodistribution of radioactivity after 48 hr of intravenous injection in mice spleen; assay type: ADME, organism-based
[8] = tested on: Mus musculus; assay: Tested for biodistribution of radioactivity after 3h of intravenous injection in mice intestine; assay type: ADME, organism-based
[9] = tested on: Mus musculus; assay: Tested for biodistribution of radioactivity after 1 hr of intravenous injection in mice lung; assay type: ADME, organism-based
[10] = tested on: Mus musculus; assay: Tested for biodistribution of radioactivity after 48 hr of intravenous injection in mice blood; assay type: ADME, organism-based
[11] = tested on: Mus musculus; assay: Tested for biodistribution of radioactivity after 10 min of intravenous injection in mice intestine; assay type: ADME, organism-based
[12] = tested on: Mus musculus; assay: Tested for biodistribution of radioactivity after 10 min of intravenous injection in mice lung; assay type: ADME, organism-based
[13] = tested on: Mus musculus; assay: Tested for biodistribution of radioactivity after 24 hr of intravenous injection in mice kidneys; assay type: ADME, organism-based, Kidney
[14] = tested on: Mus musculus; assay: Tested for biodistribution of radioactivity after 3h of intravenous injection in mice neck; assay type: ADME, organism-based
[15] = tested on: Mus musculus; assay: Tested for biodistribution of radioactivity after 10 min of intravenous injection in mice liver; assay type: ADME, organism-based
[16] = tested on: Mus musculus; assay: Tested for biodistribution of radioactivity after 10 min of intravenous injection in mice blood; assay type: ADME, organism-based
[17] = tested on: Mus musculus; assay: Tested for biodistribution of radioactivity after 3h of intravenous injection in mice liver; assay type: ADME, organism-based
[18] = tested on: Mus musculus; assay: Tested for biodistribution of radioactivity after 72 hr of intravenous injection in mice kidneys; assay type: ADME, organism-based
[19] = tested on: Mus musculus; assay: Tested for biodistribution of radioactivity after 72 hr of intravenous injection in mice intestine; assay type: ADME, organism-based
[20] = tested on: Mus musculus; assay: Tested for biodistribution of radioactivity after 24 hr of intravenous injection in mice stomach; assay type: ADME, organism-based
[21] = tested on: Mus musculus; assay: Tested for biodistribution of radioactivity after 72 hr of intravenous injection in mice stomach; assay type: ADME, organism-based
[22] = tested on: Mus musculus; assay: Tested for biodistribution of radioactivity after 72 hr of intravenous injection in mice neck; assay type: ADME, organism-based
[23] = tested on: Mus musculus; assay: Tested for biodistribution of radioactivity after 24 hr of intravenous injection in mice spleen; assay type: ADME, organism-based
[24] = tested on: Mus musculus; assay: Tested for biodistribution of radioactivity after 24 hr of intravenous injection in mice blood; assay type: ADME, organism-based
[25] = tested on: Mus musculus; assay: Tested for biodistribution of radioactivity after 6 hr of intravenous injection in mice spleen; assay type: ADME, organism-based
[26] = tested on: Mus musculus; assay: Tested for biodistribution of radioactivity after 1 hr of intravenous injection in mice neck; assay type: ADME, organism-based
[27] = tested on: Mus musculus; assay: Tested for biodistribution of radioactivity after 1 hr of intravenous injection in mice stomach; assay type: ADME, organism-based
[28] = tested on: Mus musculus; assay: Tested for biodistribution of radioactivity after 3h of intravenous injection in mice spleen; assay type: ADME, organism-based
[29] = tested on: Mus musculus; assay: Tested for biodistribution of radioactivity after 3h of intravenous injection in mice blood; assay type: ADME, organism-based
[30] = tested on: Mus musculus; assay: Tested for biodistribution of radioactivity after 1 hr of intravenous injection in mice spleen; assay type: ADME, organism-based
[31] = tested on: Mus musculus; assay: Tested for biodistribution of radioactivity after 10 min of intravenous injection in mice kidneys; assay type: ADME, organism-based
[32] = tested on: Mus musculus; assay: Tested for biodistribution of radioactivity after 6 hr of intravenous injection in mice stomach; assay type: ADME, organism-based
[33] = tested on: Mus musculus; assay: Tested for biodistribution of radioactivity after 24 hr of intravenous injection in mice neck; assay type: ADME, organism-based
[34] = tested on: Mus musculus; assay: Tested for biodistribution of radioactivity after 3h of intravenous injection in mice kidneys; assay type: ADME, organism-based, Kidney
[35] = tested on: Mus musculus; assay: Tested for biodistribution of radioactivity after 6 hr of intravenous injection in mice intestine; assay type: ADME, organism-based
[36] = tested on: Mus musculus; assay: Tested for biodistribution of radioactivity after 48 hr of intravenous injection in mice kidneys; assay type: ADME, organism-based
[37] = tested on: Mus musculus; assay: Tested for biodistribution of radioactivity after 6 hr of intravenous injection in mice neck; assay type: ADME, organism-based
[38] = tested on: Mus musculus; assay: Tested for biodistribution of radioactivity after 48 hr of intravenous injection in mice liver; assay type: ADME, organism-based
[39] = tested on: Mus musculus; assay: Tested for biodistribution of radioactivity after 6 hr of intravenous injection in mice kidneys; assay type: ADME, organism-based, Kidney
[40] = tested on: Mus musculus; assay: Tested for biodistribution of radioactivity after 48 hr of intravenous injection in mice lung; assay type: ADME, organism-based
[41] = tested on: Mus musculus; assay: Tested for biodistribution of radioactivity after 6 hr of intravenous injection in mice blood; assay type: ADME, organism-based
[42] = tested on: Mus musculus; assay: Tested for biodistribution of radioactivity after 6 hr of intravenous injection in mice lung; assay type: ADME, organism-based
[43] = tested on: Mus musculus; assay: Tested for biodistribution of radioactivity after 48 hr of intravenous injection in mice stomach; assay type: ADME, organism-based
[44] = tested on: Mus musculus; assay: Tested for biodistribution of radioactivity after 1 hr of intravenous injection in mice blood; assay type: ADME, organism-based
[45] = tested on: Mus musculus; assay: Tested for biodistribution of radioactivity after 72 hr of intravenous injection in mice blood; assay type: ADME, organism-based
[46] = tested on: Mus musculus; assay: Tested for biodistribution of radioactivity after 48 hr of intravenous injection in mice intestine; assay type: ADME, organism-based
[47] = tested on: Mus musculus; assay: Tested for biodistribution of radioactivity after 10 min of intravenous injection in mice neck; assay type: ADME, organism-based
[48] = tested on: Mus musculus; assay: Tested for biodistribution of radioactivity after 24 hr of intravenous injection in mice urine; assay type: ADME, organism-based
[49] = tested on: Mus musculus; assay: Tested for biodistribution of radioactivity after 24 hr of intravenous injection in mice lung; assay type: ADME, organism-based
[50] = tested on: Mus musculus; assay: Tested for biodistribution of radioactivity after 72 hr of intravenous injection in mice liver; assay type: ADME, organism-based
[51] = tested on: Mus musculus; assay: Tested for biodistribution of radioactivity after 6 hr of intravenous injection in mice liver; assay type: ADME, organism-based
[52] = tested on: Mus musculus; assay: Tested for biodistribution of radioactivity after 24 hr of intravenous injection in mice liver; assay type: ADME, organism-based
[53] = tested on: Mus musculus; assay: Tested for biodistribution of radioactivity after 24 hr of intravenous injection in mice feces; assay type: ADME, organism-based
[54] = tested on: Mus musculus; assay: Tested for biodistribution of radioactivity after 1 hr of intravenous injection in mice kidneys; assay type: ADME, organism-based, Kidney
[55] = tested on: Mus musculus; assay: Tested for biodistribution of radioactivity after 48 hr of intravenous injection in mice neck; assay type: ADME, organism-based
[56] = tested on: Mus musculus; assay: Tested for biodistribution of radioactivity after 10 min of intravenous injection in mice spleen; assay type: ADME, organism-based
[57] = tested on: Mus musculus; assay: Tested for biodistribution of radioactivity after 1 hr of intravenous injection in mice liver; assay type: ADME, organism-based
[58] = tested on: Mus musculus; assay: Tested for biodistribution of radioactivity after 3h of intravenous injection in mice lung; assay type: ADME, organism-based

Dose/organ [1]: 0.67%
Dose/organ [2]: 0.49%
Dose/organ [3]: 1.52%
Dose/organ [4]: 1.04%
Dose/organ [5]: 1.96%
Dose/organ [6]: 0.54%
Dose/organ [7]: 0.92%
Dose/organ [8]: 1.93%
Dose/organ [9]: 7.08%
Dose/g [10]: 5.78%
Dose/organ [11]: 0.8%
Dose/organ [12]: 10.37%
Dose/organ [13]: 2.08%
Dose/organ [14]: 0.51%
Dose/organ [15]: 9.81%
Dose/organ [16]: 33.64%
Dose/organ [17]: 6.43%
Dose/organ [18]: 0.82%
Dose/organ [19]: 0.28%
Dose/organ [20]: 0.28%
Dose/organ [21]: 0.14%
Dose/organ [22]: 0.09%
Dose/organ [23]: 1.41%
Dose/g [24]: 9.64%
Dose/organ [25]: 3.19%
Dose/organ [26]: 0.75%
Dose/organ [27]: 0.92%
Dose/organ [28]: 3.67%
Dose/g [29]: 25.11%
Dose/organ [30]: 4.84%
Dose/organ [31]: 6.08%
Dose/organ [32]: 0.84%
Dose/organ [33]: 0.32%
Dose/organ [34]: 5%
Dose/organ [35]: 1.27%
Dose/organ [36]: 1.12%
Dose/organ [37]: 0.45%
Dose/organ [38]: 1.53%
Dose/organ [39]: 4.45%
Dose/organ [40]: 1.98%
Dose/g [41]: 20.31%
Dose/organ [42]: 7.6%
Dose/organ [43]: 0.2%
Dose/g [44]: 29.3%
Dose/g [45]: 4.22%
Dose/organ [46]: 0.4%
Dose/organ [47]: 0.34%
Dose/organ [48]: 23.39%
Dose/organ [49]: 4.06%
Dose/organ [50]: 1.05%
Dose/organ [51]: 5.39%
Dose/organ [52]: 2.46%
Dose/organ [53]: 0.89%
Dose/organ [54]: 5.35%
Dose/organ [55]: 0.16%
Dose/organ [56]: 7.15%
Dose/organ [57]: 8.51%
Dose/organ [58]: 8.06%
Structure (SMILES): N[C@@H](CSC1CC(=O)N(CCOC(=O)CNC(=O)c2cccc(I)c2)C1=O)C(=O)O (stereo partly drawn)
